Test results as given in publication PMC12910667, “Investigating the Landscape of C6-Azaindole Side Chain on the Epoxymorphinan Skeleton via the Nitrogen Walk Concept: A Strategy to Enhance Drug-Like Properties” (Journal of Medicinal Chemistry, 2026).

What was measured:
KOR = molecular target: T1, KOR (Mus musculus, UniProt P33534); assay: competitive radioligand binding assay, KOR; settings: CHO cell membranes; mean ± SEM (n ≥ 3)
T1 construct: expressed in transfected cells; host or cells: CHO cells (provided by Dr. Selley, Virginia Commonwealth University)

[1] = molecular target: T2, human δ-opioid receptor (DOR) (Homo sapiens, UniProt P41143); assay: competitive radioligand binding assay, DOR; settings: CHO cell membranes; mean ± SEM (n ≥ 3)
T2 construct: expressed in transfected cells; host or cells: CHO cells (provided by Dr. Selley, Virginia Commonwealth University)

MOR = molecular target: T3, MOR (Mus musculus, UniProt P42866); assay: [35S]-GTPγS functional assay at MOR; assay type: biochemical; settings: relative to 3 μM DAMGO; mean ± SEM (n ≥ 3)
T3 construct: expressed in transfected cells

SMILES: O=C(N[C@H]1CC[C@@]2(O)[C@H]3Cc4ccc(O)c5c4[C@@]2(CCN3CC2CC2)[C@H]1O5)c1cccc2cc[nH]c12 [NAN, 17-cyclopropylmethyl-3,14β-dihydroxy-4,5α-epoxy-6α-(indole-7-carboxamido)morphinan]
- Ki (KOR): 1.69 ± 0.35 nM
- Ki [1]: 13.7 ± 1.39 nM
- MOR [35S]-GTPγS binding % Emax of DAMGO (MOR): 19.11 ±3.31%
